Experimental data as given in patent US7838234B2, “Methods for determining cancer resistance to histone deacetylase inhibitors” (Pharmacyclics, Inc., priority 2007, dated 2010).

Tests used:
[1] = system: HDACi-responsive biomarker genes; experiment: Taqman mRNA levels of HDACi-responsive biomarker genes in mouse tissues after dosing; assay type: in vivo; settings: mice, 50 mg/kg, 3 and 8 hours after administration, 13 tissues
Procedure: RNA expression profiles were determined using on a GE-Codelink Mouse Unisetl 10K oligonucleotide arrays in duplicate. Each treated sample was normalized to the corresponding vehicle control. In order to validate the expression profile of HDADi-responsive genes identified by the gene expression array assays, Taqman gene expression assays were performed using Applied Biosystems Inc. assays. One-step RT-PCR was carried out in triplicate on 25 ng of total RNA from each sample on a ABI PRISM 7700 instrument. The mRNA levels for each gene were normalized to the amount of RNA in the well as measured in parallel using Ribogreen (Molecular Probes). The treated samples were then normalized to the vehicle control at that time point. We then determined the in vivo expression levels for five of the RDACi-responsive biomarker genes in various tissues following 3 hours or 8 hours following administration of PCI-24781 (50 mg/kg). A Taqman assay was performed to determine mRNA expression levels in brain, colon, kidney, liver, stomach, ovary, uterus, mammary, muscle, heart, lung, spleen, and pancreas. The issue distribution pattern was very reproducible across the biomarker set.

[2] = system: Glioblastoma primary tumor cells; experiment: Soft agar tritiated thymidine assay of primary human tumor samples, EDR/IDR/LDR classification: glioblastoma; assay type: cell-based
Procedure: (§1) Subsequently, primary human tumor samples were obtained and viable tumor cells were plated in soft agar and treated with the HDAC inhibitor PCI-24781. Tritiated thymidine was added after 3 days, and 2 days later the radioactivity incorporated into the DNA was quantified. The tumors were then classified as either resistant (EDR: Extreme Drug Resistance), sensitive (LDR) or intermediate (IDR) based on deviation from the median profile (Oncotech, Inc. Tustin, Calif.). As predicted based on the HDACi responsive biomarker gene profiles hematopoietic tumors had the lowest proportion of resistant (EDR) tumors, and colon the most (38%). Among the solid tumors, ovarian had the lowest proportion of resistant tumors, consistent with the high HDACi-biomarker responsiveness of this tissue.

[3] = system: AML primary tumor cells; experiment: Soft agar tritiated thymidine assay of primary human tumor samples, EDR/IDR/LDR classification: AML; assay type: cell-based
Procedure: as §1

[4] = system: acetylated tubulin in PBMC; experiment: Tubulin acetylation in peripheral blood mononuclear cells of treated mice (immunoblotting); assay type: in vivo, mouse; settings: female BALB/c mice, 50 mg/kg IV, 0.25-8 hours after dosing
Procedure: In brief, female BALB/c mice were injected IV with 50 mg/kg PCI-24781 or vehicle. Blood and various tissues were collected at 0.25, 0.5, 1, 2, 3 & 8 hours after dosing. For acetylated histone and tubulin detection, organs/tissues were pooled for each vehicle and drug-treated organ group. RNA and protein were extracted from the samples with the PARIS Protein and RNA Isolation System (Ambion). Levels of acetylated and total α-tubulin & histones were evaluated by immunoblotting.

[5] = system: HDACi resistance biomarker genes in colorectal tumor cells; experiment: Microarray gene expression profiling of colorectal tumor cells treated with PCI-24781 or untreated; assay type: cell-based, human; settings: PCI-24781 2 μM vs untreated
Procedure: After determining tumor sensitivity to PCI-24781, gene expression profiles were determined for resistant and sensitive tumors that were treated with PCI-24781 (2 μM) or untreated. Total RNA was isolated using Qiagen procedures (Qiagen, Inc., Valencia, Calif.) and fluorescent probes were prepared and hybridized to Codelink Human Whole Genome oligonucleotide microarrays containing ˜55,000 unique probes (GE Healthcare Bio-Sciences Corp., Piscataway, N.J.) according to the manufacturer's instructions. The microarrays were scanned in a GenePix 4000B scanner (Molecular Devices Corporation, Sunnyvale Calif.). The images were processed with Codelink software and the exported data was analyzed as follows.
The median-normalized microarray data were imported into Genespring software (Agilent), and principal component analysis (PCA) and hierarchical clustering analysis were performed. We looked for consistent results from multiple analysis methods to provide additional confidence in our results. For multiple hypothesis correction, we used the q-values approach for false discovery rates (FDR) as described in Storey et al. (2003), Proc. Nat. Acad. Sci. USA, 100:9440-9445. As a second analytical approach we adopted the Bayesian ANOVA approach described in Ishwaran et al. (2003), J. Amer. Stat. Assoc., 98:438-455. […]

[6] = system: Ovarian primary tumor cells; experiment: Soft agar tritiated thymidine assay of primary human tumor samples, EDR/IDR/LDR classification: ovarian; assay type: cell-based
Procedure: as §1

[7] = system: advanced metastatic colon tumor cells; experiment: Ex vivo growth inhibition of advanced metastatic colon tumor cells; assay type: cell-based, human; settings: in a number of cases, FIG. 11B
[8] = system: primary colon tumor cells from newly diagnosed, naive patients; experiment: Ex vivo growth inhibition of primary colon tumor cells from newly diagnosed, naive patients; assay type: cell-based, human; settings: ex vivo cultured cells from twelve patients, FIG. 11A
[9] = system: Multiple Myeloma primary tumor cells; experiment: Soft agar tritiated thymidine assay of primary human tumor samples, EDR/IDR/LDR classification: multiple myeloma; assay type: cell-based
Procedure: as §1

[10] = system: primary colorectal tumors (colon carcinoma biopsies); experiment: Soft agar chemosensitivity assay (tritiated thymidine incorporation) of primary colorectal tumors ex vivo; assay type: cell-based, human
Text: The method used soft agar chemosensitivity assays in which primary human tumors were exposed in culture to PCI-24781. Either a trititated thymidine or alamar blue assay was then used to estimate the percentage of resistance to PCI-24781. For example in the trititated thymidine assay, sensitive tumor cells affected by the drug divided less and therefore incorporated less thymidine, whereas resistant tumor cells continued to grow and divide and therefore incorporated more thymidine into their DNA.
Primary colorectal cancer (CRC) samples were obtained from patient biopsies (Table 2). Viable tumor cells were plated and cultured in soft agar as described in Kern et al. (1990), J. Natl. Cancer Inst., 82:582-588, and were treated with a range of PCI-24781 concentrations (0.01-2 μM). Tritiated thymidine was added to the culture after 3 days of exposure to the drug, and the amount of radioactivity incorporated into the cells after a further 2 days was quantified. The percentage of cell growth inhibition (% GI) was calculated by comparing the treated cells to the control cells, and from these growth profiles the tumors were classified as either sensitive or resistant based on deviation from the median profile.
Subsequently, primary human tumor samples were obtained and viable tumor cells were plated in soft agar and treated with the HDAC inhibitor PCI-24781. Tritiated thymidine was added after 3 days, and 2 days later the radioactivity incorporated into the DNA was quantified. The tumors were then classified as either resistant (EDR: Extreme Drug Resistance), sensitive (LDR) or intermediate (IDR) based on deviation from the median profile (Oncotech, Inc. Tustin, Calif.).

CN(C)Cc1c(C(=O)NCCOc2ccc(C(=O)NO)cc2)oc2ccccc12 [PCI-24781]
tissue with highest induction of mRNA of five HDACi-responsive biomarker genes [1]: Ovary showed the highest level of induction, followed by uterus
% Resistance [2]: 29%
Intermediate IDR (number of tumors) ([2]; of 7 tumors): 1
Resistant EDR (number of tumors) ([2]; of 7 tumors): 2
Sensitive LDR (number of tumors) ([2]; of 7 tumors): 4
% Resistance [3]: 10%
Intermediate IDR (number of tumors) ([3]; of 10 tumors): 4
Resistant EDR (number of tumors) ([3]; of 10 tumors): 1
Sensitive LDR (number of tumors) ([3]; of 10 tumors): 5
tubulin acetylation levels in PBMC [4]: increases
effect of treatment on expression of the identified resistance biomarker genes [5]: not altered
% Resistance [6]: 25%
Intermediate IDR (number of tumors) ([6]; of 12 tumors): 4
Resistant EDR (number of tumors) ([6]; of 12 tumors): 3
Sensitive LDR (number of tumors) ([6]; of 12 tumors): 5
sensitivity to growth inhibition [7]: resistant
sensitivity to growth inhibition [8]: all sensitive
% Resistance [9]: 33%
Intermediate IDR (number of tumors) ([9]; of 6 tumors): 0
Resistant EDR (number of tumors) ([9]; of 6 tumors): 2
Sensitive LDR (number of tumors) ([9]; of 6 tumors): 4
% Resistance [10]: 38%
Intermediate IDR (number of tumors) ([10]; of 24 tumors): 3
Resistant EDR (number of tumors) ([10]; of 24 tumors): 9
Sensitive LDR (number of tumors) ([10]; of 24 tumors): 12
